Measured values taken from patent US9404115B2, “Coryneform bacterium transformant and process for producing phenol using the same” (priority 2010, dated 2016).
Read-outs that look alike come from different tables or passages of the source.

What was measured:
Escherichia coli JM109 = conditions: aerobic, LB, 37° C., OD610
Description: (§1) A growth inhibition test in aerobic culture was performed to examine the influence of phenol on Corynebacterium glutamicum, Escherichia coli, and Pseudomonas putida. Pseudomonas putida S12, which was used for the test, is reported to be a solvent-resistant strain. In the report, disclosed is an unparalleled technology using the strain as a host in phenol production.
Escherichia coli JM109 was applied to LB agar medium (1% polypeptone, 0.5% yeast extract, 0.5% NaCl and 1.5% agar) and was left stand in the dark at 37° C. for 15 hours.
An inoculation loop of the Escherichia coli JM109 grown on a plate as above was inoculated into a test tube containing 10 mL of LB liquid medium (1% polypeptone, 0.5% yeast extract, and 0.5% NaCl), and aerobic culture was performed with shaking at 37° C. for 13 hours.
The Escherichia coli JM109 grown in the above conditions was inoculated into 100 mL of LB liquid medium in such a way that the initial bacterial cell concentration would be OD610=0.05, phenol was added at the same time in such a way that the final concentration would be 0, 0.16, or 0.20 mM, and aerobic culture was performed with shaking at 37° C. The growth of bacterial cells was determined by absorbance measurement at OD610.

Pseudomonas putida F1 = conditions: aerobic, LB (+glucose), 30° C., OD610
Description: as §1
(§2) Pseudomonas putida F1 and S12 were applied to LB agar medium (1% polypeptone, 0.5% yeast extract, 0.5% NaCl and 1.5% agar) and were left stand in the dark at 30° C. for 15 hours.
(§3) An inoculation loop of each of the Pseudomonas putida F1 and S12 grown on a plate as above was inoculated into a test tube containing 10 mL of LB (+glucose) liquid medium (1% polypeptone, 0.5% yeast extract, 0.5% NaCl and 0.4% glucose), and aerobic culture was performed with shaking at 30° C. for 13 hours.
(§4) The Pseudomonas putida F1 and S12 grown in the above conditions were each inoculated into 100 mL of LB (+glucose) liquid medium in such a way that the initial bacterial cell concentration would be OD610=0.05, phenol was added at the same time in such a way that the final concentration would be 0, 0.10, or 0.20 mM, and aerobic culture was performed with shaking at 30° C. The growth of bacterial cells was determined by absorbance measurement at OD610.

Pseudomonas putida S12 = conditions: aerobic, LB (+glucose), 30° C., OD610
Description: as §1, §2, §3, §4

[1] = tested on: Corynebacterium glutamicum R; conditions: aerobic, A liquid medium, 33° C., OD610
Description: as §1
Corynebacterium glutamicum R was applied to A agar medium (2 g of […], 7 g of (NH4)2SO4, 0.5 g of KH2PO4, 0.5 g of K2HPO4, 0.5 g of MgSO4.7H2O, 1 mL of 0.06% (w/v) Fe2SO4.7H2O+0.042% (w/v) MnSO4.2H2O, 1 mL of 0.02% (w/v) biotin solution, 2 mL of 0.01% (w/v) thiamin solution, 2 g of yeast extract, 7 g of vitamin assay casamino acid, 40 g of glucose, and 15 g of agar were suspended in 1 L of distilled water) and was left stand in the dark at 33° C. for 15 hours.
An inoculation loop of the Corynebacterium glutamicum R grown on a plate as above was inoculated into a test tube containing 10 mL of A liquid medium (2 g of (NH2)2CO, 7 g of (NH4)2SO4, 0.5 g of KH2PO4, 0.5 g of K2HPO4, 0.5 g of MgSO4.7H2O, 1 mL of 0.06% (w/v) Fe2SO4.7H2O+0.042% (w/v) MnSO4.2H2O, 1 mL of 0.02% (w/v) biotin solution, 2 mL of 0.01% (w/v) thiamin solution, 2 g of yeast extract, 7 g of vitamin assay casamino acid, and 40 g of glucose were suspended in 1 L of distilled water) and was aerobically cultured with shaking at 33° C. for 13 hours.
The Corynebacterium glutamicum R grown in the above conditions was inoculated into 100 mL of A liquid medium in such a way that the initial bacterial cell concentration would be OD610=0.05, phenol was added at the same time in such a way that the final concentration would be 0, 0.16, 0.2, 0.24, or 0.32 mM, and aerobic culture was performed with shaking at 33° C. The growth of bacterial cells was determined by absorbance measurement at OD610.

[2] = tested on: Corynebacterium glutamicum R; conditions: reducing conditions (ORP −450 mV), 8% glucose, 33° C.
Description: Corynebacterium glutamicum R was applied to A agar medium and was left stand in the dark at 33° C. for 20 hours.
An inoculation loop of the Corynebacterium glutamicum R grown on a plate as above was inoculated into a test tube containing 10 mL of A liquid medium and was aerobically cultured with shaking at 33° C. for 15 hours.
The Corynebacterium glutamicum R grown in the above conditions was inoculated into a 2 L-conical flask containing 500 mL of A liquid medium and was aerobically cultured with shaking at 33° C. for 15 hours.
The bacterial cells cultured and proliferated as above were collected by centrifugation (5,000×g at 4° C. for 15 minutes). The obtained bacterial cells were suspended in BT (−urea) liquid medium (0.7% ammonium sulfate, 0.05% potassium dihydrogen phosphate, 0.05% dipotassium hydrogen phosphate, 0.05% magnesium sulfate heptahydrate, 0.0006% iron sulfate heptahydrate, 0.00042% manganese sulfate hydrate, 0.00002% biotin and 0.00002% thiamine hydrochloride) so that the concentration of the bacterial cell was 10% (w/v). […] During the reaction, the pH of the reaction mixture was kept at or above 7.0 through addition of 2.5N aqueous ammonia controlled by a pH controller (Type: DT-1023 made by Able).

Oc1ccccc1 [phenol] was tested, and the “proliferation of Escherichia coli” value (Escherichia coli JM109; 0.16% phenol) was “significantly affected”, the “proliferation of Escherichia coli” value (Escherichia coli JM109; 0.20% phenol) was “completely inhibited” and the “proliferation of Pseudomonas putida F1” value (Pseudomonas putida F1; 0.10% phenol) was “significantly affected”. For the same compound, the “proliferation of Pseudomonas putida F1” value (Pseudomonas putida F1; 0.20% phenol) was “completely inhibited”, the “proliferation of Pseudomonas putida S12” value (Pseudomonas putida S12; 0.10% phenol) was “significantly affected” and the “proliferation of Pseudomonas putida S12” value (Pseudomonas putida S12; 0.20% phenol) was “completely inhibited”. The “proliferation of Corynebacterium glutamicum” value ([1]; 0.16% phenol) was “hardly affected”, the “proliferation of Corynebacterium glutamicum” value ([1]; 0.20% phenol) was “favorable growth” and the “proliferation of Corynebacterium glutamicum” value ([1]; 0.24% phenol) was “able to proliferate”. For the same compound, the “saccharide consumption by Corynebacterium glutamicum R” value (from here on “saccharide consumption”) ([2]; 0.24% phenol) was “no influence of phenol was observed”, the “saccharide consumption” value ([2]; 0.38% phenol) was “saccharide consumption was observed” and the “saccharide consumption” value ([2]; 0.46% phenol) was “slightly observed”.
